Where two headings read alike, the source gives them in different places.
Assays:
bladder or urethra = conditions: epidural application, 4 μg/kg (Batra) or 2 μg/kg (Drenger, dogs); cited from earlier work
[1] = cited from earlier work
[2] = cited from earlier work; remark: listed apart in the source
bladder function = conditions: rat model with rhythmic bladder contraction; cited from earlier work
[3] = tested on: bladder overactivity induced by oxyhemoglobine; experiment: Cystometry with wake rats damaged by oxyhemoglobin (urge incontinence model); assay type: in vivo, Sprague-Dawley rat
[4] = after use of the substances, OxyHb 2.5 × 10^−4M, buprenorphine 0.005 mg/kg iv where given
[5] = before use of the substances, OxyHb 2.5 × 10^−4M, buprenorphine 0.005 mg/kg iv where given
[6] = change compared to the pre-basis

21-cyclopropyl-7-α-[(S)-1-hydroxy-1,2,2-trimethylpropyl]-6,14-endo-ethano-6,7,8,14-tetrahydrooripavine [buprenorphine]
influence on the function of bladder or urethra (bladder or urethra): does not have a significant influence
plasma concentration ([1]; about 5 minutes after intravenous 0.3 mg): about 9 ng/ml
plasma concentration ([1]; about 3 hours after intramuscular 0.3-mg dose): about 0.4 ng/ml
time of mean peak plasma concentration ([1]; intravenous single dose of about 0.3 mg): ≤ 2 min
Cmax ([2]; 0.4 mg sublingual dose): 0.50 ng/mL
Cmax ([2]; 0.8 mg sublingual dose): 1.04 ng/mL

COc1cccc(C2(O)CCCCC2CN(C)C)c1 (stereo not shown) [tramadol]
effect on bladder function (bladder function): positive effect

OxyHb
ICI inter-contraction interval, after (a) [3, 4]: a: 3.33 ± 0.18 min
MP Micturition pressure, after (a) [3, 4]: a: 97 ± 5 cm H2O
TP threshold pressure, after (a) [3, 4]: a: 9.84 ± 1.56 cm H2O
bladder capacity, after (a) [3, 4]: a: 0.65 ± 0.06 ml
ICI inter-contraction interval, before (b) [3, 5]: b: 4.96 ± 0.33 min
MP Micturition pressure, before (b) [3, 5]: b: 59 ± 8 cm H2O
TP threshold pressure, before (b) [3, 5]: b: 8.72 ± 1.31 cm H2O
bladder capacity, before (b) [3, 5]: b: 0.92 ± 0.10 ml
ICI inter-contraction interval, Diff. [3, 6]: Diff.: −32.9%
MP Micturition pressure, Diff. [3, 6]: Dif.: +64.4%
TP threshold pressure, Diff. [3, 6]: Diff.: +12.8%
bladder capacity, Diff. [3, 6]: Diff.: −29.3%

Source: US20040228906A1 (priority 2001, published 2004)
